In PubChem BioAssay (NCI) one finds TGI and GI50 data, which are given here for 14 molecules.

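Five concentrations, 48 hours, 96-well plates. GI50 marks 50% less growth. At the TGI there is no net growth.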

Among the test systems are OVCAR-8 ovarian; SF-539 CNS; TK-10 renal; NCI-H522 lung; EKVX NSCLC; UACC-257 melanoma; HT29 colon; SNB-19 CNS; M14 melanoma; SR leukemia.
Holding throughout (assay): growth of human tumour cells (NCI), 48 h

`COc1ccc2nc3cc(Cl)ccc3c(NCCCN(C)CCCNc3ccc4ncn5c6ccccc6c(=O)c3c45)c2c1`: the TGI in the experiment on OVCAR-8 ovarian amounted to 8.52 µM; in the experiment with SF-539 CNS it was 5.26 µM; with TK-10 renal, 1.76 µM; in the experiment with NCI-H522 lung it was 1.73 µM; in the experiment on EKVX NSCLC, 7.15 µM; in the experiment on UACC-257 melanoma, 6.81 µM. The TGI with HT29 colon is 0.69 µM; in the experiment on SNB-19 CNS, 5.86 µM; with M14 melanoma, 5.8 µM; with SR leukemia, over 7.84 µM.

In the case of `CC(C)OP(=O)(OC(C)C)C(=Nc1ccc(N=C(NNc2ccc([N+](=O)[O-])cc2)P(=O)(OC(C)C)OC(C)C)cc1)NNc1ccc([N+](=O)[O-])cc1`, the TGI with OVCAR-8 ovarian, in the experiment with SF-539 CNS, with TK-10 renal, in the experiment with NCI-H522 lung, in the experiment on EKVX NSCLC and in the experiment on UACC-257 melanoma was over 100 µM in each case. The TGI in the experiment on SNB-19 CNS, in the experiment on M14 melanoma and with SR leukemia was over 100 µM throughout.

`O[C@@H]1CCCCN1Cc1cc2cc3c(cc2c2cc(OCc4ccccc4)ccc12)OCO3`: the GI50 in the experiment with OVCAR-8 ovarian was 1.19 µM; with SF-539 CNS, 1.55 µM; in the experiment on TK-10 renal it was 2.08 µM; with NCI-H522 lung it was 1.49 µM; in the experiment on EKVX NSCLC, 2.01 µM; in the experiment with UACC-257 melanoma, 1.86 µM. For the same molecule, the GI50 in the experiment on HT29 colon is 1.03 µM; in the experiment with SNB-19 CNS, 1.63 µM; with M14 melanoma, 1.59 µM. For the same molecule, the TGI in the experiment with OVCAR-8 ovarian worked out at 3.03 µM; in the experiment with SF-539 CNS, 2.96 µM; in the experiment with TK-10 renal, 4.05 µM; in the experiment with NCI-H522 lung, 2.91 µM; in the experiment on EKVX NSCLC, 3.97 µM; in the experiment with UACC-257 melanoma, 3.66 µM. Also, the TGI worked out at 2.45 µM in the experiment with HT29 colon, 3.59 µM in the experiment with SNB-19 CNS and 2.96 µM with M14 melanoma.

For `CS(=O)(=O)Sc1ccc(Cl)cc1`, the TGI worked out at 21.8 µM in the experiment with OVCAR-8 ovarian; 10.9 µM with SF-539 CNS; 31.2 µM in the experiment with TK-10 renal; 9.47 µM with NCI-H522 lung; 18.3 µM with EKVX NSCLC; 20.6 µM in the experiment with UACC-257 melanoma. In addition, the TGI came out at 22.6 µM in the experiment on HT29 colon, 25.1 µM in the experiment with SNB-19 CNS, 25.8 µM with M14 melanoma and 15.7 µM in the experiment with SR leukemia.

`CCOC(=O)/C(C#N)=c1/s/c(=C(\O)N/N=C/c2ccc(OC)cc2)c(=N)n1-c1ccccc1`: the TGI in the experiment with OVCAR-8 ovarian, with SF-539 CNS, in the experiment on TK-10 renal, with NCI-H522 lung, with UACC-257 melanoma and in the experiment on HT29 colon was over 100 µM in each case. The TGI with SNB-19 CNS and with SR leukemia was over 100 µM each time.

`NC(C(=O)O)C(O)c1cnc[nH]1` (stereo not drawn): the TGI in the experiment on OVCAR-8 ovarian, in the experiment with SF-539 CNS, in the experiment with TK-10 renal, in the experiment with NCI-H522 lung, with EKVX NSCLC and in the experiment with UACC-257 melanoma was over 100 µM throughout. Moreover, the TGI in the experiment on HT29 colon, in the experiment on SNB-19 CNS, in the experiment on M14 melanoma and with SR leukemia was over 100 µM each time.

As to `C[N+](C)(C)CC(=O)N/N=C\c1c(O)ccc2ccccc12`, the TGI in the experiment with OVCAR-8 ovarian was over 100 µM; with SF-539 CNS, over 100 µM; with TK-10 renal it was over 100 µM; with NCI-H522 lung, 53.6 µM; with EKVX NSCLC, over 100 µM; in the experiment with UACC-257 melanoma it was over 100 µM. For the same molecule, the TGI in the experiment on HT29 colon, with SNB-19 CNS, in the experiment with M14 melanoma and with SR leukemia was over 100 µM throughout.

Take `O=c1cc(O)c1=O`: the TGI in the experiment with OVCAR-8 ovarian, in the experiment with SF-539 CNS, with TK-10 renal, in the experiment with NCI-H522 lung, in the experiment on EKVX NSCLC and in the experiment with UACC-257 melanoma was over 100 µM each time. Also, the TGI in the experiment with HT29 colon, in the experiment on SNB-19 CNS, in the experiment with M14 melanoma and in the experiment with SR leukemia was over 100 µM throughout.

For `CCCCCCCCCCCCOC(=N)N1CCOCC1`, the TGI was 33.5 µM in the experiment with OVCAR-8 ovarian; 19.1 µM with SF-539 CNS; 31.6 µM in the experiment with TK-10 renal; 30.4 µM with NCI-H522 lung; 26.4 µM in the experiment on EKVX NSCLC; 23.9 µM with UACC-257 melanoma. Also, the TGI is 4.11 µM in the experiment on HT29 colon, 35.5 µM in the experiment on SNB-19 CNS, 14.1 µM with M14 melanoma and 4.53 µM in the experiment with SR leukemia.

`Nc1ccc(Oc2ccc(C3(c4ccc(Oc5ccc(N)c(O)c5)cc4)C4CC5CC(C4)CC3C5)cc2)cc1O`: the TGI with SF-539 CNS came to 2.35 µM; with TK-10 renal it was 4.54 µM; with NCI-H522 lung, 3.06 µM; in the experiment with EKVX NSCLC, 6.16 µM; with UACC-257 melanoma, 5.91 µM; in the experiment on HT29 colon, 4.4 µM. Also, the TGI in the experiment on SNB-19 CNS was determined as 7.6 µM; with M14 melanoma, 3.18 µM; with SR leukemia, 3.11 µM.

On to `C/C(=C\COP(=O)(O)CP(=O)(O)O)CC/C=C(\C)CNc1ccccc1`, for which the TGI with OVCAR-8 ovarian was over 100 µM; in the experiment with SF-539 CNS, over 100 µM; in the experiment with TK-10 renal, over 100 µM; in the experiment on NCI-H522 lung, over 100 µM; with EKVX NSCLC, 30.3 µM; in the experiment on UACC-257 melanoma, over 100 µM. The TGI in the experiment on HT29 colon, in the experiment on SNB-19 CNS and in the experiment on M14 melanoma was over 100 µM in each case.

Turning to `COC(=O)C(Cc1ccc2c(c1)OCO2)(NC(=O)c1ccccc1)P(=O)(OC)OC` (stereo not drawn), the TGI with OVCAR-8 ovarian, with SF-539 CNS, with TK-10 renal, in the experiment with NCI-H522 lung, in the experiment with EKVX NSCLC and with UACC-257 melanoma was over 100 µM throughout. For the same molecule, the TGI in the experiment with HT29 colon, in the experiment on SNB-19 CNS, with M14 melanoma and with SR leukemia was over 100 µM in each case.

On to `Cc1nnc(NS(=O)(=O)c2ccc(N=Nc3c(O)c(C(=O)O)cc4ccccc34)cc2)s1`, for which the TGI with OVCAR-8 ovarian, in the experiment with SF-539 CNS, with TK-10 renal, with NCI-H522 lung, in the experiment with EKVX NSCLC and in the experiment on UACC-257 melanoma was over 100 µM each time. Besides, the TGI with HT29 colon, with SNB-19 CNS, in the experiment with M14 melanoma and with SR leukemia was over 100 µM throughout.

For the molecule `COc1ccc2c(c1)SC1=Nc3sc4cc(OC)ccc4[n+]3CN12`, the TGI in the experiment with OVCAR-8 ovarian was over 100 µM; with SF-539 CNS it was over 100 µM; with TK-10 renal, over 100 µM; with NCI-H522 lung it was 8.5 µM; with EKVX NSCLC, over 100 µM; in the experiment on UACC-257 melanoma, over 100 µM. The TGI with HT29 colon was 56.3 µM; in the experiment on SNB-19 CNS, over 100 µM; in the experiment with M14 melanoma it was over 100 µM; in the experiment with SR leukemia, 24.4 µM.
